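The compound was tested at five concentrations on cells cultured in 96-well plates, with a 48-hour exposure period. The concentration for 50% growth inhibition is given as GI50.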 Activity calls are given as the source filed them. Rule as the data show it: active = GI50 up to about 1.1 µM and inactive = higher.
Legend:
Test in all cases: NCI-60 cell line screen, 48 h
[1] = tested on: NCI-H460
[2] = tested on: T47D
[3] = tested on: SK-MEL-28
[4] = tested on: TK-10
[5] = tested on: PC-3
[6] = tested on: SK-OV-3
[7] = tested on: DU-145
[8] = tested on: KM12
[9] = tested on: SNB-19
[10] = tested on: Malme-3M
[11] = tested on: A498
[12] = tested on: U-251
[13] = tested on: 786-0
[14] = tested on: SK-MEL-5
[15] = tested on: LOX IMVI
[16] = tested on: A549
[17] = tested on: RPMI-8226
[18] = tested on: HCT-116
[19] = tested on: NCI-H522

Measured: GI50

COc1cc(CC2CC(c3ccc4c(c3)OCO4)OC2=O)cc(OC)c1OC (centres undefined)
inactive: [1] > 100 µM | [2] 39 µM | [3] > 100 µM | [4] > 100 µM | [5] 91.6 µM | [6] > 100 µM | [7] > 100 µM | [8] > 100 µM | [9] > 100 µM | [10] 61.1 µM | [11] > 100 µM | [12] > 100 µM | [13] > 100 µM | [14] 43.9 µM | [15] > 100 µM | [16] > 100 µM | [17] 25.1 µM | [18] > 100 µM

COc1cc(NC(C)=O)ccc1C(=O)NN1C(=O)C(Cl)C1c1ccco1 (centres undefined)
inactive: [2] > 100 µM | [3] > 100 µM | [5] > 100 µM | [7] > 100 µM | [8] > 100 µM | [9] > 100 µM | [10] > 100 µM | [11] > 100 µM | [13] > 100 µM | [14] 76.4 µM | [19] > 100 µM | [15] 75.2 µM | [16] 92.5 µM | [17] > 100 µM | [18] > 100 µM

CNC(=O)CNC(=O)N(C[C@@H]1CCCN1C(=O)[C@H](CC(C)C)NC(=O)OC(C)(C)C)C(C)C
inactive: [1] > 100 µM | [2] > 100 µM | [3] > 100 µM | [5] > 100 µM | [6] > 100 µM | [7] > 100 µM | [8] > 100 µM | [9] > 100 µM | [10] > 100 µM | [11] > 100 µM | [12] > 100 µM | [13] > 100 µM | [14] > 100 µM | [19] > 100 µM | [15] > 100 µM | [16] > 100 µM | [17] > 100 µM | [18] > 100 µM

CC12CCC([C@H](C(O)C3CCCCC3)C1=O)C2(C)C (some centres undefined)
inactive: [1] > 100 µM | [2] > 100 µM | [4] > 100 µM | [5] > 100 µM | [6] > 100 µM | [7] > 100 µM | [8] > 100 µM | [9] > 100 µM | [11] > 100 µM | [12] > 100 µM | [13] > 100 µM | [14] 82.2 µM | [19] 65.8 µM | [15] > 100 µM | [17] 49.4 µM | [18] > 100 µM

c1cn(C23C4C5C6C4C2C6C53)cn1 (centres undefined)
inactive: [1] > 100 µM | [2] > 100 µM | [3] > 100 µM | [4] > 100 µM | [5] > 100 µM | [6] > 100 µM | [7] > 100 µM | [8] > 100 µM | [9] > 100 µM | [11] > 100 µM | [12] > 100 µM | [13] > 100 µM | [14] > 100 µM | [19] > 100 µM | [15] > 100 µM | [16] > 100 µM | [17] > 100 µM | [18] > 100 µM

CN(N)c1cc(=O)[nH]c(=O)[nH]1
inactive: [1] > 100 µM | [2] > 100 µM | [3] > 100 µM | [4] > 100 µM | [5] > 100 µM | [6] > 100 µM | [7] > 100 µM | [8] > 100 µM | [9] > 100 µM | [10] > 100 µM | [11] > 100 µM | [13] > 100 µM | [14] > 100 µM | [19] > 100 µM | [15] > 100 µM | [16] 54 µM | [17] > 100 µM | [18] > 100 µM

OCC1=C[C@@](COCc2ccccc2)(OCc2ccccc2)[C@@H](OCc2ccccc2)[C@@H]1OCc1ccccc1
inactive: [1] 18.8 µM | [2] 19.3 µM | [3] 35.3 µM | [4] 21.3 µM | [5] 15.1 µM | [7] 37.6 µM | [8] 15.9 µM | [9] 42.8 µM | [10] 18 µM | [11] 10.9 µM | [12] 6.59 µM | [13] 20.7 µM | [14] 15.7 µM | [19] 11 µM | [15] 7.31 µM | [16] 10.5 µM | [17] 2.49 µM | [18] 12.2 µM

O=C1NC2(CN3CCC2CC3)C(=O)N1CN(Cc1ccccc1)c1ccccc1 (centres undefined)
inactive: [1] 29.4 µM | [2] 39 µM | [3] > 100 µM | [4] > 100 µM | [5] > 100 µM | [6] > 100 µM | [7] 48.4 µM | [8] > 100 µM | [9] > 100 µM | [11] > 100 µM | [12] > 100 µM | [13] > 100 µM | [14] 85.7 µM | [19] 94.6 µM | [15] 35.2 µM | [16] 81.1 µM | [17] 28.2 µM | [18] > 100 µM

— ChEMBL document CHEMBL1201862, “PubChem BioAssay data set” (2004)
